Test system: Red imported fire ant (Solenopsis invicta)
Assay: Fire ant repellency, honey plates near mounds (Example 6)
Type: in vivo
Settings: separate trial; about 100 mg per plate; within 4 feet of mounds
Source text: Formulation A was poured into a plastic spray bottle and was sprayed onto 20 eight inch paper plates, one squeeze of the pump trigger per plate. […] Ten treated plates were placed randomly on the ground on a farm in Sparks, Ga., USA and ten control (untreated) plates were placed on the ground about 3 feet from the treated plates. Ten treated plates were placed about 4 feet from active Red imported fire ant mounds and ten control plates were placed near the same mounds no closer than 3 feet from the treated plates. Each plate received approximately 15 mL of an aqueous 25% honey solution.
Fifty percent of the control plates had active fire ant feeding within 15 minutes and 100% of the control plates had active fire ant feeding within 30 minutes.

`COC(=O)c1ccccc1N` [methyl anthranilate] was tested, and the “deterrence of fire ant feeding” value was “did not deter fire ants from feeding”.

Reference: patent US10178865B2, “Insect repellent” (priority 2013, dated 2019)
